Results on one compound are retold here after patent US20240246951A1, “COMPOUND HAVING BIOLOGICAL ACTIVITY SUCH AS ANTIVIRAL ACTIVITY” (NATIONAL CENTER FOR GLOBAL HEALTH AND MEDICINE, priority 2021, published 2024).

The experiment concerns SARS-CoV-2 variants (TX7-501, TY8-612, QHN001, K1734, K5356). It is filed as cell-based. As to conditions: variants of Table 4 instead of WK-521; data not shown.

On to `CC(C)(C)[C@H](NC(=O)C(F)(F)F)C(=O)N1C[C@H]2[C@@H]([C@H]1C(=O)N[C@@H](C[C@@H]1CCNC1=O)C(=O)c1nc3c(F)cccc3s1)C2(C)C` [Compound 245, (1R,2S,5S)-3-((S)-3,3-dimethyl-2-(2,2,2-trifluoroacetamido)butanoyl)-N-((S)-1-(4-fluorobenzo[d]thiazol-2-yl)-1-oxo-3-((S)-2-oxopyrrolidin-3-yl)propan-2-yl)-6,6-dimethyl-3-azabicyclo[3.1.0]hexane-2-carboxamide], for which the “antiviral activity against variants” value is listed as “excellent antiviral activities”.
